According to US7115662B2, “Certain 5-alkyl-2-arylaminophenylacetic acids and derivatives” (Novartis AG, priority 1997, dated 2006):
pIC50: −log10 of the molar value.

What was measured:
[1] = system: gross gastric ulceration; experiment: gastric tolerability assay; assay type: in vivo; details: rat; 100 mg/kg p.o.; four hours after administration
Experimental: The gastric tolerability assay is used to assess gross ulceration in the rat, measured four hours after oral administration of the test compound. The test is carried out as follows: Rats are fasted overnight, administered compound in fortified cornstarch vehicle by gavage, and sacrificed by carbon dioxide inhalation four hours later. The stomachs are removed and gross gastric lesions counted and measured to give the total lesion length per rat. Each experiment contains the following groups (5–6 rats per group): vehicle control, test compounds, and diclofenac as a reference compound. Data are calculated as the mean number of ulcers in a group, the mean length of ulcers (mm) in the group and as the ulcer index (UI). UI=mean length of ulcers in a group×ulcer incidence where ulcer incidence is the fraction of animals in the group with lesions (100% incidence is 1).

[2] = target: T1, cyclooxygenase-2 (COX-2) (Homo sapiens, UniProt P35354); experiment: cellular COX-2 inhibition assay (IL-1 induced human fibroblasts, PGE2 radioimmunoassay); assay type: cell-based; details: primary human fibroblasts induced with IL-1, 40 μM arachidonic acid
T1 construct: endogenous in cells; host or cells: primary human skin fibroblasts induced with IL-1
T1 sequence (P35354 18-604): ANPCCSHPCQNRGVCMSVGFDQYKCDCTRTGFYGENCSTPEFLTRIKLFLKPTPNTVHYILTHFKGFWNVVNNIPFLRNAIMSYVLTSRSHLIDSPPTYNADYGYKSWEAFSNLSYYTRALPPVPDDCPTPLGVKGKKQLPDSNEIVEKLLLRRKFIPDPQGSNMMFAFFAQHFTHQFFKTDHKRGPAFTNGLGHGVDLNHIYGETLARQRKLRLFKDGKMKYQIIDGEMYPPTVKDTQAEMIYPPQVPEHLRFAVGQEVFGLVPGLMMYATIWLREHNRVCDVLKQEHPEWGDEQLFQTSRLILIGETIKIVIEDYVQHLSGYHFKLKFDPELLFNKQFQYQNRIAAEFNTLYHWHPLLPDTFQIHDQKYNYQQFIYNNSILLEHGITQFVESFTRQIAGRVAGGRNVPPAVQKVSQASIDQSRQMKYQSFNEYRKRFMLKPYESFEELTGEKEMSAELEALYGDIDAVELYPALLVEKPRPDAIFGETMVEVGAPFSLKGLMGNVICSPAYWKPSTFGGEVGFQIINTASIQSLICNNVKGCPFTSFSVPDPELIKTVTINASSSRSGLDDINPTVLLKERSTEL
Experimental: (§1) Cyclooxygenase inhibition is determined in vitro using cellular assays for inhibition of both cyclooxygenase-1 and cyclooxygenase-2.
(§2) The cellular assays for testing cyclooxygenase inhibitors are based on the fact that the cyclooxygenase enzyme (prostaglandin H synthase) catalyzes the rate limiting step in prostaglandin synthesis from arachidonic acid. Two enzymes mediate the reaction: COX-1 is a constitutive form of the enzyme whereas COX-2 is induced in response to various growth factors and cytokines. Cell lines have been established which express one form of the enzyme: a human skin fibroblast line which can be induced with IL-1 to synthesize COX-2, and the kidney epithelial cell line 293 which has been stably transfected to constitutively express COX-1. Both isoforms metabolize arachidonic acid into the stable metabolite prostaglandin E2. Arachidonic acid can be added exogenously to increase output to easily measurable levels. The levels of prostaglandin E2 in the extracellular medium are assayed by radioimmunoassay as a measure of enzyme activity. The relative activities of each isoform are compared to assess compound selectivity.
(§3) In vitro cyclooxygenase-1 (COX-1) and cyclooxygenase-2 (COX-2) inhibition is determined in the cell-based assays in order to assess the in vitro activity and selectivity for COX-2 inhibition, using a prostaglandin E2 radioimmunoassay. The cells utilized are primary human fibroblasts induced with interleukin-1 to produce COX-2, and the human kidney epithelial cell line 293 stably transfected to produce COX-1 constitutively. Cells are plated out into well plates in which the assay is performed. Fibroblasts are stimulated to synthesize COX-2 by treatment overnight with IL-1; the 293 cells require no induction. Both cell lines are pre-treated with compound dilutions for 15 minutes at 37° C., then 40 μM arachidonic acid is added as exogenous substrate for the production of PGE2, which is measured in supernatant by radioimmunoassay. […]

[3] = system: pain threshold in yeast-inflamed paw; experiment: Randall-Selitto paw pressure assay; assay type: in vivo, rat; details: male Wistar rats; 10 mg/kg orally; 1 h after dosing
Experimental: The analgesic activity of the compounds of the invention is determined using the well-known Randall-Selitto assay.
The Randall-Selitto paw pressure assay measures antinociception (analgesic activity) in inflamed tissue by comparing the pressure threshold in the inflamed paw of the rat after oral administration of test drug with that in the inflamed paw of rats administered corn starch vehicle orally.
Groups of 10 male Wistar rats weighing 40–50 gms are fasted overnight prior to testing. Hyperalgesia is induced by the injection of 0.1 ml of a 20% suspension of Brewer's yeast with a 26 gauge needle into the subplantar region of the right hindpaw. The left paw is not injected and is used as the control paw for determination of hyperalgesia. Vehicle (Fortified corn starch suspension 3%) at 10 ml/kg, reference compound (diclofenac is run in every experiment at the same dose as test compounds) and test compounds at different doses suspended in vehicle at 10 ml/kg are administered orally 2 hours after the yeast injection. The threshold for paw withdrawal is quantified with a Basile Analgesy-meter 1 hour after oral administration of test compounds. The nociceptive threshold is defined as the force in grams at which the rat withdraws its foot or vocalizes. Either vocalization or foot withdrawal is recorded as a response.
The data are analyzed by comparing the mean pain threshold of the corn starch vehicle-treated group for the inflamed and non-inflamed paws to that of individual drug-treated rats. Individual rats in the drug-treated groups and positive control (diclofenac) group are called reactors if the individual pain threshold in each paw exceeds the control group mean threshold by two standard deviations of that mean. The mean pain thresholds of the inflamed paw in the control group are compared to the individual pain thresholds of the inflamed paw in the test drug group. The non-inflamed control mean pressure threshold is compared to the non-inflamed individual pressure thresholds in the test groups. Results are expressed as number of reactors in each test group (n=10) for inflamed and non-inflamed paws. Percentages are calculated by dividing number of reactors by total number of rats used for a compound.

[4] = target: T2, cyclooxygenase-1 (COX-1) (Homo sapiens, UniProt P23219); experiment: cellular COX-1 inhibition assay (293 cells stably transfected with COX-1, PGE2 radioimmunoassay); assay type: cell-based; details: 293 cells expressing COX-1; 30 μM compound
T2 construct: expressed in transfected cells; host or cells: human kidney epithelial cell line 293, stably transfected
T2 sequence (P23219 24-599, species assumed): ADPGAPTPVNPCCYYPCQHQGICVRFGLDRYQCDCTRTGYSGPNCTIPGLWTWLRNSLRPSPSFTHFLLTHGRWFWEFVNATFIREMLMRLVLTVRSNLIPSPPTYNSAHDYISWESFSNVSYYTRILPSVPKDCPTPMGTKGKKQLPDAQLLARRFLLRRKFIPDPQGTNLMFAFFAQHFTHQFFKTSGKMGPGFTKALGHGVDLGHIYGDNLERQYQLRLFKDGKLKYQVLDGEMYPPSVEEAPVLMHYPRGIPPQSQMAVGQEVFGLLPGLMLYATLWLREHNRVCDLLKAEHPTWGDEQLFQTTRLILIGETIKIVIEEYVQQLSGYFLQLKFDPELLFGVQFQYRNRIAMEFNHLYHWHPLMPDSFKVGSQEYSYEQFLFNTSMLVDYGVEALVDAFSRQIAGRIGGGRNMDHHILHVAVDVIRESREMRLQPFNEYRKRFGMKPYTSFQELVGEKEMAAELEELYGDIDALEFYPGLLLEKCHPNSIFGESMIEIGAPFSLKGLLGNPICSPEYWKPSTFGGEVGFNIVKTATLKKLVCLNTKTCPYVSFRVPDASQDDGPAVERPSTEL
Experimental: as §1, §2, §3

[5] = system: intestinal permeability; experiment: intestinal tolerability (51Cr-EDTA intestinal permeability); assay type: in vivo; details: rat; 30 mg/kg p.o.; 51Cr-EDTA urinary excretion over 24 h
Experimental: Intestinal tolerability can be determined by measuring the effect on intestinal permeability. Lack of increase in permeability is indicative of intestinal tolerability. The method used is a modification of a procedure by Davies, et al., Pharm. Res. 1994; 11:1652–1656 and is based on the fact that excretion of orally administered ^51Cr-EDTA, a marker of small intestinal permeability, is increased by NSAIDs. Groups of rats (≧12/group) are administered a single, oral dose of test compound or vehicle by gastric intubation. Immediately following compound dose, each rat is administered ^51Cr-EDTA (5 μCi/rat) by gastric intubation. The rats are placed in individual metabolic cages and given food and water ad libitum. Urine is collected over a 24 hour period. Twenty-four hours after administration of ^51Cr-EDTA the rats are sacrificed. To quantify compound effect on intestinal permeability, the excreted ^51Cr-EDTA measured in the urine of compound treated rats is compared to the excreted ^51Cr-EDTA measured in the urine of vehicle treated rats. Relative permeability is determined by calculating the activity present in each urine sample as a percent of the administered dose after correcting for background radiation.

| Compound | gastric ulcerogenic effect [1] | pIC50 [2] | pain threshold in the inflamed paw [3] | pain threshold in the non-inflamed paw [3] | COX-1 inhibition at 30 μM [4] | effect on intestinal permeability [5] | melting point |
| --- | --- | --- | --- | --- | --- | --- | --- |
| Cc1ccc(Nc2c(F)cccc2Cl)c(CC(=O)O)c1 [1(d), 5-methyl-2-(2′-chloro-6′-fluoroanilino)phenylacetic acid] | essentially free of any gastric ulcerogenic effect | ~6.89 | increase the pain threshold | no threshold elevation | no significant COX-1 inhibition | no effect or only a minimal effect | – |
| CCc1ccc(Nc2c(F)c(F)cc(F)c2F)c(CC(=O)O)c1 [3(a), 5-ethyl-2-(2′, 3′,5′,6′-tetrafluoroanilino)phenylacetic acid] | essentially free of any gastric ulcerogenic effect | ~8.15 | increase the pain threshold | no threshold elevation | no significant COX-1 inhibition | no effect or only a minimal effect | – |
| Cc1ccc(Nc2c(F)cc(F)cc2Cl)c(CC(=O)O)c1 [Example 1(g), 5-methyl-2-(2′,4′-difluoro-6′-chloroanilino)phenylacetic acid] | essentially free of any gastric ulcerogenic effect | ~6.60 | increase the pain threshold | no threshold elevation | no significant COX-1 inhibition | no effect or only a minimal effect | 157 to 159 °C |
